Square brackets hold non-standard residues; d marks the D form. Ends that are not written are not given here.
Assays:
BRIN-BD11 cells = test: In vitro insulin secretion in BRIN-BD11 cells (radioimmunoassay); format: cell-based, rat; details: 5.6 mM glucose; for insulin secretion compared to glucose alone, FIG. 1b experiment: P<0.05 to P<0.001
Experimental: BRIN-BD11 cells (ECACC accession number 100330033) were cultured in RPMI 1640 tissue culture medium containing 10% (v/v) foetal calf serum, 1% (v/v) antibiotics (100 U/ml of penicillin and 0.1 mg/ml of streptomycin). BRIN-BD11 cells were originally derived by means of electrofusion of a New England Deaconess Hospital (NEDH) rat pancreatic beta-cell line with an RINm5F cell line in order to produce an immortal, glucose sensitive, insulin secreting cell line (McClenaghan etal., Diabetes. 1996 August; 45(8):1132-40). All cells were maintained in sterile tissue culture flasks (Corning Glass Works, Corning, N.Y., USA) at 37° C. in an atmosphere of 5% CO2 and 95% air, using an LEEC incubator (Laboratory Technical Engineering, Nottingham, UK).
BRIN-BD11 cells were seeded into 24-well plates at a density of 1×10^5 cells and allowed to attach to the wells overnight in an incubator. Before acute studies of insulin were carried out, the cells underwent a 40 min preincubation period at 37° C. with 1.0 ml of Krebs Ringer bicarbonate buffer (115 mM NaCl, 4.7 mM KCl, 1.28 mM CaCl2.2H2O, 1.2 mM KH2PO4, 1.2 mM MgSO4.7H2O, 10 mM NaHCO3, 5 g/l bovine serum albumin (BSA), pH 7.4) supplemented with 1.1 mM glucose. […] The incubations were performed for 20 min at 37° C., after which the buffer solution was removed and 2×200 μl aliquots stored at −20° C. until measurement of insulin levels by radioimmunoassay (RIA).

high fat fed mice = test: Acute glucose homeostasis and insulin secretion in high fat fed mice; format: in vivo; details: 25 nmol/kg i.p. with glucose 18 mmol/kg
Experimental: (§1) NIH Swiss male mice (6 weeks old) were housed in an air conditioned room 22±2° C. with a 12 h light: 12 h dark cycle. Animals were maintained on a high fat diet 16 weeks prior to commencement and throughout the study. Drinking water and high fat diet was freely available. All animal studies were performed in accordance with the UK Animals (Scientific Procedures) Act 1986 under project licences held by the inventor.
Freely fed animals were divided into weight-matched groups (n=8) and administered, by intraperitoneal injection, glucose alone (18 mmol/kg body weight) or glucose in combination with each peptide (25 nmol/kg body weight). Blood samples were collected immediately prior to (t=0) and 15, 30 and 60 min post-injection. Whole blood was used to measure glucose values using an Acensia CONTOUR Microfill Blood Glucose Meter and Acensia MICROFILL test strips (Bayer Healthcare, UK). Blood samples for measurement of insulin was collected into fluorine/heparin microcentrifuge tubes (Sarstedt, Numbercht, Germany) at times indicated above and immediately centrifuged using a Beckman microcentrifuge (Beckman Instruments, UK) for 5 min at 13,000 g. Plasma was then aliquoted and stored at −20° C. prior to insulin determination by RIA.

high-fat fed mice = test: Persistent glucose-lowering in high-fat fed mice, peptide given 4 hours before glucose load; format: in vivo; details: 25 nmol/kg i.p. 4 hours before glucose load
Experimental: as §1
Freely fed animals were divided into weight-matched groups (n=8) and administered, by intraperitoneal injection, saline vehicle (0.9% NaCl) or saline in combination with each peptide (25 nmol/kg body weight). Food was then immediately withdrawn and 4 hours later all mice received an intraperitoneal injection of glucose alone (18 mmol/kg body weight). Blood samples were collected immediately prior to (t=0) and 15, 30 and 60 min post glucose injection. Whole blood was used to measure glucose values using an Acensia CONTOUR Microfill Blood Glucose Meter and Acensia MICROFILL test strips (Bayer Healthcare, UK).

[1] = biological target: Dipeptidyl peptidase-4 (DPP-4) (Homo sapiens, UniProt P27487); details: pH 7.8
Chain of Dipeptidyl peptidase-4 (DPP-4) (P27487 whole entry, species assumed): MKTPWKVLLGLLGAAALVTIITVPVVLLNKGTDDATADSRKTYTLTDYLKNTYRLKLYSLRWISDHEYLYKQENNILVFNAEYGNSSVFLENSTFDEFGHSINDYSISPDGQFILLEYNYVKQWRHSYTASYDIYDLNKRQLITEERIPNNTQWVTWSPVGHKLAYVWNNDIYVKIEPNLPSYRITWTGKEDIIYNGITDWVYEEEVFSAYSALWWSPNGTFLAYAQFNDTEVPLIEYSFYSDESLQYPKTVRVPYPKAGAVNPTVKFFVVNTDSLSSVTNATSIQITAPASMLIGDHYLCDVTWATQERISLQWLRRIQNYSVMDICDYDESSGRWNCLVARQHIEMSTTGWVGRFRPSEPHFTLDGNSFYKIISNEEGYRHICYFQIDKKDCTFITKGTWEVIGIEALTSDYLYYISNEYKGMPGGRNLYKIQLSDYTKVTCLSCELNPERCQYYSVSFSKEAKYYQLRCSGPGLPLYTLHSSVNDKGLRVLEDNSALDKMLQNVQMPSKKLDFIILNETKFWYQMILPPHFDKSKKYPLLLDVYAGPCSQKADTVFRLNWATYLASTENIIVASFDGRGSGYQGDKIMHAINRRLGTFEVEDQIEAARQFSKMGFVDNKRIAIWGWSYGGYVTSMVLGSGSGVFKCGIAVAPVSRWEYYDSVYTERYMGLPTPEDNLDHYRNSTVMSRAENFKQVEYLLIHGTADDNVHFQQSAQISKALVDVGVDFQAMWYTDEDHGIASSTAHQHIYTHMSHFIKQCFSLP
Experimental: Dipeptidyl peptidase-4 (DPP-4) was used to determine the degradation properties and identify any degradation products. Each peptide (30 μg) was incubated at 37° C. DPP-4 with 455 μl 50 mM triethanolamine-HCl (TEA) pH 7.8 buffer, and the reaction was stopped with 5 μl 10% (v/v) TFA. Time 0, 15, 30, 60, 120, 240 and 480 minutes degradation profiles were measured and HPLC was carried out to identify the degradation pattern and degradation products.

[2] = Incubation in the presence of murine plasma (MALDI-ToF MS, ESI MS); details: 37° C., 50 mM TEA-HCl pH 7.8, up to 24 hours
Experimental: MALDI-ToF Mass Spectrometry: Following solid phase extraction, samples for each degradation time-point were subsequently mixed with α-cyano-4-hydroxycinnamic acid and applied to a Voyager-DE BioSpectrometry Workstation and mass-to-charge (m/z) ratio verses peak intensity recorded.
ESI Mass Spectrometry: Samples for each degradation time-point were applied to the ESI Ion-trap MS/MS utilizing a mass-to-charge range (m/z) of 0-2000. Resulting mass spectra were analyzed with the turbo sequest algorithm and degradation fragments sequenced against a fasta database containing the native xenin sequence.

Row | Substance | insulin secretion, peptide alone (BRIN-BD11 cells; 20 min, 10^-12 to 10^-6 M, FIG. 1a/1e) | insulin secretion compared to glucose alone, FIG. 1b experiment (BRIN-BD11 cells) | insulin production compared to glucose alone, concentrations with significant effect (BRIN-BD11 cells; peptide alone, FIG. 1a/1e) | plasma glucose AUC vs glucose alone (high fat fed mice; 0-60 min) | plasma glucose excursion vs glucose alone (high fat fed mice; 0-60 min, FIG. 2a) | plasma insulin response vs glucose alone (high fat fed mice; FIG. 2b/2f) | effect on plasma glucose when administered 4 hours previously (high-fat fed mice) | degradation by DPP-IV [1] | degradation in murine plasma [2]
1 | MLTKFETKSARVKGLSFHPKRPWIL-OH [native xenin] | stimulated insulin secretion in a concentration-dependent manner | significantly stimulated insulin secretion in a concentration-dependent manner | significantly enhanced insulin production at concentrations of 10^−8 and 10^−6 M | failed to reach overall significance | not significantly different to animals receiving glucose alone | not significantly different to animals receiving glucose alone | did not elicit any significant effects on plasma glucose | completely resistant to degradation by DPP-IV | –
2 | (D-Ala^2)GIP: YAEGTFISDYSIAMDKIHQQDFVNWLLAQKGKKNDWKHNITQ, alanine at position 2 is a D-amino acid (Y[dA]EGTFISDYSIAMDKIHQQDFVNWLLAQKGKKNDWKHNITQ) | – | significantly stimulated insulin secretion in a concentration-dependent manner | – | – | – | – | – | – | –
3 | MLTQFETQSAQVQGLSFHPQQPWIL [xenin-Gln] | – | – | – | – | – | – | – | – | stable in the presence of murine plasma
